Data from publication PMC5473807, “Distribution and kinetics of the Kv1.3-blocking peptide HsTX1[R14A] in experimental rats” (Scientific Reports, 2017).

Biological target: T1, mKv1.3 (Mus musculus, UniProt P16390)
T1 construct: expressed in transfected cells
Assay: Whole-cell patch-clamp block of Kv1.3 currents
Assay type: cell-based
Conditions: L929 mouse fibroblasts stably expressing mKv1.3, room temperature, peak current at 40 mV, Hill fit, n = 3 cells per concentration, read-out: IC50 against Kv1.3
Procedure: L929 mouse fibroblast cells stably expressing mKv1.3[32] were gifts from Dr. K. George Chandy (University of California, Irvine). They were maintained in DMEM medium (Invitrogen, Carlsbad, CA) supplemented with 100 IU/mL penicillin, […] streptomycin, 2 mM L-glutamine, 10% heat-inactivated foetal bovine serum, and 0.5 mg/mL G418 (EMD Chemicals, Gibbstown, NJ).
Electrophysiology experiments were conducted at room temperature in the whole-cell configuration of the patch-clamp technique on a Port-a-Patch setup (Nanion, North Brunswick, NJ) linked to a HEKA EPC10USB amplifier (HEKA Instruments, Bellmore, NY). A holding potential of −80 mV was used for all recordings. Pipette resistances averaged 2.0 MΩ when filled with internal solution containing (in mM): 145 KF, 10 HEPES, 10 EGTA, and 2 MgCl2, pH 7.2, 290 mOsm. Kv currents were elicited every 30 s by 200-ms depolarising pulses from a holding potential of −80 mV to 40 mV. Kv1.3 currents were recorded in normal Ringer solution containing (in mM): 160 NaCl, 4.5 KCl, 2 CaCl2, 1 MgCl2, and 10 HEPES, pH 7.2, 300 mOsm. IC50 values and Hill coefficients were determined by fitting the Hill equation to the reduction of peak current by the drug at 40 mV.
Figure S2. […] (a) Whole-cell Kv1.3 currents measured by whole-cell patch-clamp in stably transfected L929 fibroblasts before (control) and after perfusion of 10 pM and 100 nM NOTA-HsTX1[R14A]. […]

T1 sequence (P16390 whole entry): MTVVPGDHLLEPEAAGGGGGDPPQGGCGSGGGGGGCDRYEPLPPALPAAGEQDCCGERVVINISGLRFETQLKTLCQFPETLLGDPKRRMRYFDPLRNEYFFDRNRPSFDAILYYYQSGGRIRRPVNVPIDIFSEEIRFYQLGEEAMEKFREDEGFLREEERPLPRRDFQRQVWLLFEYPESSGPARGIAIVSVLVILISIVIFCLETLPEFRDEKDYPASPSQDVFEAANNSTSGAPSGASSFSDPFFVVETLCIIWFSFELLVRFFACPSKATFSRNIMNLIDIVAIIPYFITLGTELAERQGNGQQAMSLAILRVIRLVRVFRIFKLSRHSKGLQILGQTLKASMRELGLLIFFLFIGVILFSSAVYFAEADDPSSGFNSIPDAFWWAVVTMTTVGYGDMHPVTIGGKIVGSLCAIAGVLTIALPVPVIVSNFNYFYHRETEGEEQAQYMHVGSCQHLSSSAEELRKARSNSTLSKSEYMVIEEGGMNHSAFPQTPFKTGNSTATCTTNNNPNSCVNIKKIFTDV

CSCC[C@@H]1NC(=O)[C@@H]2CSSC[C@H](NC(=O)[C@H](CO)NC(=O)[C@H](C)NC(=O)COCCOCCNC(=O)CN3CCN(CC(=O)O)CCN(CC(=O)O)CC3)C(=O)N[C@@H](CCCNC(=N)N)C(=O)N[C@@H]([C@@H](C)O)C(=O)N3CCC[C@H]3C(=O)N[C@@H](CCCCN)C(=O)N[C@@H](CC(=O)O)C(=O)N[C@H]3CSSC[C@H](NC(=O)[C@H](CCCCN)NC(=O)[C@H](CCCNC(=N)N)NC(=O)[C@H](CC(N)=O)NC1=O)C(=O)N[C@@H](CCCCN)C(=O)N[C@H]1CSSC[C@H](NC(=O)[C@@H]4CCCN4C(=O)[C@H](CC(=O)O)NC(=O)[C@H](C)NC3=O)C(=O)N[C@@H](C)C(=O)N[C@@H](CCCCN)C(=O)N[C@@H](CCC(=O)O)C(=O)N[C@@H]([C@@H](C)O)C(=O)NCC(=O)N[C@@H](CSSC[C@@H](C(N)=O)NC(=O)[C@H](CCCNC(=N)N)NC(=O)[C@H](CC(N)=O)NC1=O)C(=O)N1CCC[C@H]1C(=O)N[C@@H](Cc1ccc(O)cc1)C(=O)NCC(=O)N[C@@H](CCCCN)C(=O)N2 [NOTA-HsTX1[R14A]]
IC50: 0.068 ± 0.012 nM
